Data: patent publication US4401660A, “Ester derivatives of 5-O-mycaminosyl tylonolide and method of using same” (Eli Lilly and Company, priority 1981, dated 1983)
Read-outs that look alike come from different tables or passages of the source.

Legend:
[1] = tested on: Staphylococcus epidermidis EPI2; assay: MIC, standard agar-dilution assay (Table II); format: cell-based; design: unit not given here
Procedure: (§1) The MIC's in Table II were determined by standard agar-dilution assays. The MIC's in Table III were obtained using a conventional broth-dilution microtiter test.

[2] = tested on: Streptococcus Group D 9960; assay: MIC, standard agar-dilution assay (Table II); format: cell-based; design: unit not given here
Procedure: as §1

[3] = tested on: Streptococcus pneumoniae Park I; assay: MIC, standard agar-dilution assay (Table II); format: cell-based; design: unit not given here
Procedure: as §1

[4] = tested on: Haemophilus influenzae R252; assay: MIC, standard agar-dilution assay (Table II); format: cell-based; design: unit not given here; details: Haemophilus influenzae R252, ampicillin-resistant strain
Procedure: as §1

[5] = tested on: Streptococcus pyogenes C203; assay: MIC, standard agar-dilution assay (Table II); format: cell-based; design: unit not given here
Procedure: as §1

[6] = tested on: Staphylococcus aureus X1.1; assay: MIC, standard agar-dilution assay (Table II); format: cell-based; design: unit not given here
Procedure: as §1

[7] = tested on: Staphylococcus epidermidis EPI1; assay: MIC, standard agar-dilution assay (Table II); format: cell-based; design: unit not given here
Procedure: as §1

[8] = tested on: Staphylococcus aureus S13E; assay: MIC, standard agar-dilution assay (Table II); format: cell-based; design: unit not given here
Procedure: as §1

[9] = tested on: Streptococcus Group D X66; assay: MIC, standard agar-dilution assay (Table II); format: cell-based; design: unit not given here
Procedure: as §1

[10] = tested on: Staphylococcus aureus X400; assay: MIC, standard agar-dilution assay (Table II); format: cell-based; design: unit not given here; details: Staphylococcus aureus X400, methicillin-resistant strain
Procedure: as §1

[11] = tested on: Staphylococcus aureus V41; assay: MIC, standard agar-dilution assay (Table II); format: cell-based; design: unit not given here; details: Staphylococcus aureus V41, penicillin-resistant strain
Procedure: as §1

[12] = tested on: Haemophilus influenzae Holt; assay: MIC, standard agar-dilution assay (Table II); format: cell-based; design: unit not given here; details: ampicillin-sensitive strain
Procedure: as §1

[13] = tested on: Streptococcus pyogenes C203; assay: ED50 in mice with experimental infections (Table IV); format: in vivo; details: doses given 1 and 4 hours postinfection; for ED50: Streptococcus pyogenes
How it was run: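 Read-out is ED50, the mg/kg dose protecting half of infected mice; values refer to each of two doses, given 1 and 4 hours after infection.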

[14] = tested on: Pasteurella multocida 22A; assay: MIC, broth-dilution microtiter test (Table III); format: cell-based; design: unit not given here
Procedure: as §1

Mycoplasma synoviae = assay: MIC, broth-dilution microtiter test (Table III); format: cell-based; design: unit not given here
Procedure: as §1

Staphylococcus aureus = assay: MIC, broth-dilution microtiter test (Table III); format: cell-based; design: unit not given here
Procedure: as §1

Mycoplasma gallisepticum = assay: MIC, broth-dilution microtiter test (Table III); format: cell-based; design: unit not given here
Procedure: as §1

[15] = tested on: Pasteurella haemolytica 23C; assay: MIC, broth-dilution microtiter test (Table III); format: cell-based; design: unit not given here
Procedure: as §1

[16] = tested on: Pasteurella haemolytica 22C; assay: MIC, broth-dilution microtiter test (Table III); format: cell-based; design: unit not given here
Procedure: as §1

[17] = tested on: Pasteurella multocida 68C; assay: MIC, broth-dilution microtiter test (Table III); format: cell-based; design: unit not given here
Procedure: as §1

[18] = tested on: Pasteurella multocida 17E; assay: MIC, broth-dilution microtiter test (Table III); format: cell-based; design: unit not given here; details: bovine isolate
Procedure: as §1

[19] = tested on: Pasteurella multocida 60A; assay: MIC, broth-dilution microtiter test (Table III); format: cell-based; design: unit not given here; details: avian isolate
Procedure: as §1

Mycoplasma hyorhinis = assay: MIC, broth-dilution microtiter test (Table III); format: cell-based; design: unit not given here
Procedure: as §1

[20] = tested on: Pasteurella haemolytica 41D; assay: MIC, broth-dilution microtiter test (Table III); format: cell-based; design: unit not given here
Procedure: as §1

Streptococcus sp. 80 = assay: MIC, broth-dilution microtiter test (Table III); format: cell-based; design: unit not given here
Procedure: as §1

[21] = tested on: Pasteurella multocida 40G; assay: MIC, broth-dilution microtiter test (Table III); format: cell-based; design: unit not given here
Procedure: as §1

Pasteurella multocida = assay: Treatment of Pasteurella infections in chicks (Table V); format: in vivo, one-day-old chicks; details: 30 mg/kg by subcutaneous injection one and four hours post challenge; for mortality at 30 mg/kg: Pasteurella multocida, sc, 4 h, read-out: Deaths in Treated Chicks/Number Treated (converted)
How it was run: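 Dosing was 30 mg/kg by subcutaneous injection, one and four hours after challenge. Day-old chicks received 0.1 ml of a 10^-3 dilution of a 20-hour tryptose broth culture of avian P. multocida subcutaneously. Nonmedicated infected chicks served as controls, ten per group.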

[22] = C203, oral, read-out: ED50, Oral
[23] = C203, sc, subcutaneous, read-out: ED50, Subcutaneous

SMILES | minimal inhibitory concentration (MIC) [1] | minimal inhibitory concentration (MIC) [2] | minimal inhibitory concentration (MIC) [3] | minimal inhibitory concentration (MIC) [4] | minimal inhibitory concentration (MIC) [5] | minimal inhibitory concentration (MIC) [6] | minimal inhibitory concentration (MIC) [7] | minimal inhibitory concentration (MIC) [8] | minimal inhibitory concentration (MIC) [9] | minimal inhibitory concentration (MIC) [10] | minimal inhibitory concentration (MIC) [11] | minimal inhibitory concentration (MIC) [12] | minimal inhibitory concentration (MIC) [14] | minimal inhibitory concentration (MIC) (Mycoplasma synoviae) | minimal inhibitory concentration (MIC) (Staphylococcus aureus) | minimal inhibitory concentration (MIC) (Mycoplasma gallisepticum) | minimal inhibitory concentration (MIC) [15] | minimal inhibitory concentration (MIC) [16] | minimal inhibitory concentration (MIC) [17] | minimal inhibitory concentration (MIC) [18] | further results
CCC1OC(=O)CC(O)C(C)C(OC2OC(C)C(OC(=O)CC(C)C)C(N(C)C)C2OC(C)=O)C(CC=O)CC(C)C(=O)C=CC(C)=CC1CO (centres unmarked) [Compound 49, 2'-O-Acetyl-4'-O-isovaleryl-OMT] | 2 | 1 | 0.125 | 1 | 0.25 | 1 | 1 | 2 | 1 | 4 | 2 | 1 | 6.25 | 0.78 | 3.12 | 1.56 | 12.5 | 12.5 | 25 | 3.12 | ED50 [13, 22]: > 100 mg/kg; ED50 [13, 23]: > 30 mg/kg; minimal inhibitory concentration (MIC) [19]: 3.12; minimal inhibitory concentration (MIC) (Mycoplasma hyorhinis): 6.25; minimal inhibitory concentration (MIC) [20]: 12.5; minimal inhibitory concentration (MIC) (Streptococcus sp. 80): 0.39; minimal inhibitory concentration (MIC) [21]: 3.12; mortality at 30 mg/kg (Pasteurella multocida): 100%
CCC1OC(=O)CC(O)C(C)C(OC2OC(C)C(O)C(N(C)C)C2O)C(CC=O)CC(C)C(=O)C=CC(C)=CC1COC(=O)CCCC(=O)OC (centres unmarked) [Compound 72] | 0.25 | 0.25 | 0.03 | 1 | 0.125 | 0.125 | 0.25 | 0.25 | 0.25 | 0.25 | 0.25 | 2 | 3.12 | 0.78 | 1.56 | 0.195 | 6.25 | 12.5 | 3.12 | 6.25 | ED50 [13, 22]: 87 mg/kg; ED50 [13, 23]: 2.3 mg/kg; minimal inhibitory concentration (MIC) [19]: 3.12; minimal inhibitory concentration (MIC) (Mycoplasma hyorhinis): 25; minimal inhibitory concentration (MIC) [20]: 12.5; minimal inhibitory concentration (MIC) (Streptococcus sp. 80): 1.56; minimal inhibitory concentration (MIC) [21]: 3.12; mortality at 30 mg/kg (Pasteurella multocida): 50%
CCC1OC(=O)CC(O)C(C)C(OC2OC(C)C(O)C(N(C)C)C2O)C(CC=O)CC(C)C(=O)C=CC(C)=CC1COC(=O)C(N)c1ccccc1 (centres unmarked) [Compound 57] | 1 | 0.5 | 0.03 | 2 | 0.125 | 0.5 | 0.5 | 0.5 | 0.5 | 1 | 0.5 | 2 | 3.12 | 0.39 | 3.12 | 0.195 | 6.25 | 6.25 | 3.12 | 6.25 | ED50, Oral ([13]; oral): 91 mg/kg × 2; ED50, Subcutaneous ([13]; subcutaneous): 2.6 mg/kg × 2; minimal inhibitory concentration (MIC) [19]: 3.12; minimal inhibitory concentration (MIC) (Mycoplasma hyorhinis): 6.25; minimal inhibitory concentration (MIC) [20]: 6.25; minimal inhibitory concentration (MIC) (Streptococcus sp. 80): 0.39; minimal inhibitory concentration (MIC) [21]: 3.12; Deaths in Treated Chicks/Number Treated (Pasteurella multocida): 0/10
CCC1OC(=O)CC(O)C(C)C(OC2OC(C)C(O)C(N(C)C)C2O)C(CC=O)CC(C)C(=O)C=CC(C)=CC1COC(=O)Cc1ccccc1 (centres unmarked) [Compound 29, 23-O-Phenylacetyl-OMT] | 0.25 | 0.125 | 0.03 | 1 | 0.06 | 0.125 | 0.125 | 0.125 | 0.125 | 0.125 | 0.125 | 0.5 | 1.56 | 0.05 | 0.097 | 0.05 | 3.12 | 3.12 | 1.56 | 1.56 | ED50 [13, 22]: > 100 mg/kg; ED50 [13, 23]: 5 mg/kg; minimal inhibitory concentration (MIC) [19]: 0.78; minimal inhibitory concentration (MIC) (Mycoplasma hyorhinis): 0.195; minimal inhibitory concentration (MIC) [20]: 3.12; minimal inhibitory concentration (MIC) (Streptococcus sp. 80): 0.05; minimal inhibitory concentration (MIC) [21]: 1.56; mortality at 30 mg/kg (Pasteurella multocida): 0%
CCC1OC(=O)CC(O)C(C)C(OC2OC(C)C(OC(C)=O)C(N(C)C)C2OC(C)=O)C(CC=O)CC(C)C(=O)C=CC(C)=CC1COC(=O)Cc1ccccc1 (centres unmarked) [Compound 27, 2',4'-Di-O-acetyl-23-O-phenylacetyl-OMT] | 0.25 | 0.125 | 0.03 | 1 | 0.06 | 0.25 | 0.25 | 0.25 | 0.125 | 0.25 | 0.25 | 1 | 3.12 | 0.05 | 0.097 | 0.05 | 3.12 | 3.12 | 1.56 | 1.56 | ED50 [13, 22]: 159 mg/kg; ED50 [13, 23]: > 30 mg/kg; minimal inhibitory concentration (MIC) [19]: 0.78; minimal inhibitory concentration (MIC) (Mycoplasma hyorhinis): 0.097; minimal inhibitory concentration (MIC) [20]: 3.12; minimal inhibitory concentration (MIC) (Streptococcus sp. 80): 0.05; minimal inhibitory concentration (MIC) [21]: 3.12; mortality at 30 mg/kg (Pasteurella multocida): 90%
